Test results taken from patent US7511145B2 (Genelabs Technologies, Inc., priority 2003, dated 2009).

Target: T1, HCV-NS5b (Hepatitis C virus genotype 1b, UniProt Q9WMX2)
T1 construct: (His)6 (C); made in house; host or cells: XL-1 cells (E. coli), IPTG-inducible plasmid, nickel-NTA purification
Test: HCV-NS5b enzyme assay (incorporation of radiolabeled UTP)
Type: biochemical
Details: for inhibition at 33 µM: enzyme inhibition at compound concentration of 33 uM; for inhibition at 100 µM: read-out: % inh@100, enzyme inhibition at compound concentration of 100 uM
Outline: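 Percent inhibition, background-corrected against uninhibited control, was measured at 100 and 33 uM compound. Incorporation of [3H]-UTP (10 μM each NTP) into biotinylated HCV-template RNA, 37° C for 2 h, pH 7.5, scintillation proximity. Enzyme: C-terminally truncated (21 aa), His6-tagged NS5b from XL-1.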

CC(=O)Nc1ccc(-c2ccc3cc(-c4nc5cc(C(=O)O)ccc5n4C4CCCCC4)ccc3n2)cc1 [Compound 501, 2-[2-(4-acetylamino-phenyl)-quinolin-6-yl]-1-cyclohexyl-1H-benzoimidazole-5-carboxylic acid]
inhibition at 33 µM: 90.6%
inhibition at 100 µM: 96.8%

O=C(O)c1ccc2c(c1)nc(-c1ccc3[nH]c(-c4ccccc4)cc(=O)c3c1)n2C1CCCCC1 [Compound 373, 1-cyclohexyl-2-(4-oxo-2-phenyl-1,4-dihydro-quinolin-6-yl)-1H-benzoimidazole-5-carboxylic acid]
inhibition at 33 µM: 39.9%
inhibition at 100 µM: 83.8%

O=C(O)c1ccc2c(c1)nc(-c1ccc3c(c1)CCC(c1ccccc1)N3)n2C1CCCCC1 (centres unmarked) [Compound 215, 1-Cyclohexyl-2-(2-phenyl-1,2,3,4-tetrahydro-quinolin-6-yl)-1H-benzoimidazole-5-carboxylic acid]
inhibition at 33 µM: 99.2%
inhibition at 100 µM: 101%

COc1ccc(-c2ccccc2OC)c(-c2ccc3cc(-c4nc5cc(C(=O)O)ccc5n4C4CCCCC4)ccc3n2)c1 [Compound 552, 1-Cyclohexyl-2-[2-(4,2′-dimethoxy-biphen-2-yl)-quinolin-6-yl]-1H-benzoimidazole-5-carboxylic acid]
inhibition at 33 µM: 101%
inhibition at 100 µM: 101%

O=C(N[C@@H](Cc1c[nH]c2ccc(O)cc12)C(=O)O)c1ccc2c(c1)nc(-c1ccc3cc(-c4ccccc4)cnc3c1)n2C1CCCCC1 [Compound 516, 2-{[1-cyclohexyl-2-(3-phenyl-quinolin-7-yl)-1H-benzoimidazole-5-carbonyl]-amino}-3-(5-hydroxy-1H-indol-3-yl)-propionic acid]
inhibition at 33 µM: 99.3%
inhibition at 100 µM: 100%

COc1ccc(-c2ccc(Cl)c(Cl)c2)c(-c2ccc3cc(-c4nc5cc(C(=O)O)ccc5n4C4CCCCC4)ccc3n2)c1 [Compound 403, 1-cyclohexyl-2-[2-(3′,4′-dichloro-4-methoxy-biphen-2-yl)-quinolin-6-yl]-1H-benzoimidazole-5-carboxylic acid]
inhibition at 33 µM: 99.4%
inhibition at 100 µM: 99.9%

CN(C(=O)c1ccc2cc(-c3nc4cc(C(=O)O)ccc4n3C3CCCCC3)ccc2n1)c1ccc(Cl)cc1 [Compound 546]
inhibition at 33 µM: 95.3%
inhibition at 100 µM: 102%

O=C1COc2ccc(-c3ccc4cc(-c5nc6cc(C(=O)O)ccc6n5C5CCCCC5)ccc4n3)cc2N1 [Compound 465, 1-cyclohexyl-2-[2-(3-oxo-3,4-dihydro-2H-benzo[1,4]oxazin-6-yl)-quinolin-6-yl]-1H-benzoimidazole-5-carboxylic acid]
inhibition at 33 µM: 98.8%
inhibition at 100 µM: 101%

COc1ccc(-c2ccc(Cl)cc2)c(-c2ccc3cc(-c4nc5cc(C(=O)O)ccc5n4C4CCCC4)ccc3n2)c1 [Compound 529, 2-[2-(4′-chloro-4-methoxy-biphen-2-yl)-quinolin-6-yl]-1-cyclopentyl-1H-benzoimidazole-5-carboxylic acid]
inhibition at 33 µM: 99.2%
inhibition at 100 µM: 99.8%

CC(C)[C@H](NC(=O)c1ccc2cc(-c3nc4cc(C(=O)O)ccc4n3C3CCCCC3)ccc2n1)C(N)=O [Compound 511, 2-[2-(1-Carbamoyl-2-methylpropylcarbamoyl)quinolin-6-yl]-1-cyclohexyl-1H-benzimidazole-5-carboxylic acid]
inhibition at 33 µM: 78.4%
inhibition at 100 µM: 95%

O=C(O)c1ccc2c(c1)nc(-c1ccc3nc(-c4ccccc4)cc(NCCCn4ccnc4)c3c1)n2C1CCCCC1 [Compound 451, 1-cyclohexyl-2-[4-(3-imidazol-1-yl-propylamino)-2-phenyl-quinolin-6-yl]-1H-benzoimidazole-5-carboxylic acid]
inhibition at 33 µM: 76.3%
inhibition at 100 µM: 95.6%

CC(NC(=O)c1ccc2cc(-c3nc4cc(C(=O)O)ccc4n3C3CCCCC3)ccc2n1)C(N)=O (centres unmarked) [Compound 497, 2-[2-(1-Carbamoylethylcarbamoyl)quinolin-6-yl]-1-cyclohexyl-1H-benzimidazole-5-carboxylic acid]
inhibition at 33 µM: 65.5%
inhibition at 100 µM: 88.5%

O=C(O)c1ccc2c(c1)nc(-c1ccc3nc(-c4cc(C(=O)N5CCCC5)ccc4-c4ccc(Cl)cc4)ccc3c1)n2C1CCCCC1 [Compound 204, 2-{2-[4′-Chloro-4-(pyrrolidine-1-carbonyl)-biphen-2-yl]-quinolin-6-yl}-1-cyclohexyl-1H-benzoimidazole-5-carboxylic acid]
inhibition at 33 µM: 99.7%
inhibition at 100 µM: 101%

NC(=O)[C@H](Cc1ccccc1)NC(=O)c1ccc2cc(-c3nc4cc(C(=O)O)ccc4n3C3CCCCC3)ccc2n1 [Compound 542, 2-[2-(1-Carbamoyl-2-phenylethylcarbamoyl)quinolin-6-yl]-1-cyclohexyl-1H-benzimidazole-5-carboxylic acid]
inhibition at 33 µM: 81.1%
inhibition at 100 µM: 98.6%

COc1ccc(-c2ccc(Cl)cc2)c(-c2ccc3cc(-c4nc5cc(C(=O)O)ccc5n4CC4CCCO4)ccc3n2)c1 (centres unmarked) [Compound 566, 2-[2-(4′-chloro-4-methoxy-biphen-2-yl)-quinolin-6-yl]-1-(tetrahydrofuran-2-yl-methyl)-1H-benzoimidazole-5-carboxylic acid]
inhibition at 33 µM: 99.2%
inhibition at 100 µM: 100%

COc1ccc(-c2ccc(OC)cc2-c2ccc3cc(-c4nc5cc(C(=O)O)ccc5n4C4CCCCC4)ccc3n2)cc1 [Compound 468, 1-cyclohexyl-2-[2-(4,4′-dimethoxy-biphen-2-yl)-quinolin-6-yl]-1H-benzoimidazole-5-carboxylic acid]
inhibition at 33 µM: 99.3%
inhibition at 100 µM: 99.1%

CCOc1ccc(-c2ccc(OC)cc2-c2ccc3cc(-c4nc5cc(C(=O)O)ccc5n4C4CCCCC4)ccc3n2)cc1 [Compound 456, 1-cyclohexyl-2-[2-(4′-ethoxy-4-methoxy-biphen-2-yl)-quinolin-6-yl]-1H-benzoimidazole-5-carboxylic acid]
inhibition at 33 µM: 100%
inhibition at 100 µM: 99.7%

COc1ccc(-c2ccc(Cl)cc2)c(-c2ccc3cc(-c4nc5cc(-c6nnn[nH]6)ccc5n4C4CCCCC4)ccc3n2)c1 [Compound 525, 2-(4′-chloro-4-methoxy-biphen-2-yl)-6-[1-cyclohexyl-5-(1H-tetrazol-5-yl)-1H-benzoimidazol-2-yl]-quinoline]
inhibition at 33 µM: 101%
inhibition at 100 µM: 101%

N=C(N)NCCC[C@H](NC(=O)c1ccc2c(c1)nc(-c1ccc3nc(-c4ccccc4)cnc3c1)n2C1CCCCC1)C(=O)O [Compound 523, 2-{[1-Cyclohexyl-2-(2-phenyl-quinoxalin-6-yl)-1H-benzoimidazole-5-carbonyl]-amino}-5-guanidino-pentanoic acid]
inhibition at 33 µM: 87.1%
inhibition at 100 µM: 95%

O=C(O)[C@@H]1Cc2ccccc2CN1C(=O)c1ccc2c(c1)nc(-c1ccc3nc(-c4ccccc4)cnc3c1)n2C1CCCCC1 [Compound 520, 2-[1-Cyclohexyl-2-(2-phenyl-quinoxalin-6-yl)-1H-benzoimidazole-5-carbonyl]-1,2,3,4-tetrahydro-isoquinoline-3-carboxylic acid]
inhibition at 33 µM: 94.8%
inhibition at 100 µM: 98.9%

COc1ccc(C2CCCCC2)c(-c2ccc3cc(-c4nc5cc(C(=O)O)ccc5n4C4CCCCC4)ccc3n2)c1 [Compound 545, 1-Cyclohexyl-2-[2-(2-cyclohexyl-5-methoxy-phenyl)-quinolin-6-yl]-1H-benzoimidazole-5-carboxylic acid]
inhibition at 33 µM: 99.2%
inhibition at 100 µM: 101%

O=C(O)c1ccc2c(c1)nc(-c1ccc3nc(C(=O)N(c4ccc(Cl)cc4)C4CCCCC4)ccc3c1)n2C1CCCCC1 [Compound 551, 2-{2-[(4-Chlorophenyl)cyclohexylcarbamoyl]quinolin-6-yl}-1-cyclohexyl-1H-benzimidazole-5-carboxylic acid]
inhibition at 33 µM: 87.5%
inhibition at 100 µM: 95.7%

CN(C)CCNC(=O)c1ccc(-c2ccccc2)c(-c2ccc3cc(-c4nc5cc(C(=O)O)ccc5n4C4CCCCC4)ccc3n2)c1 [Compound 504, 1-Cyclohexyl-2-{2-[4-(2-dimethylamino-ethylcarbamoyl)-biphen-2-yl]-quinolin-6-yl}-1H-benzoimidazole-5-carboxylic acid]
inhibition at 33 µM: 98.3%
inhibition at 100 µM: 100%

O=C(O)c1ccc2c(c1)nc(-c1ccc3ccc(-c4ccccc4)nc3c1)n2C1CCCCC1 [Compound 405, 1-Cyclohexyl-2-(2-phenyl-quinolin-7-yl)-1H-benzoimidazole-5-carboxylic acid]
inhibition at 33 µM: 90.5%
inhibition at 100 µM: 98.9%

O=C(O)c1cnc2c(c1)nc(-c1ccc3nc(-c4cc(C(=O)N5CCCC5)ccc4-c4ccc(Cl)cc4)ccc3c1)n2C1CCCCC1 [Compound 539, 2-{2-[4′-chloro-4-(pyrrolidine-1-carbonyl)-biphen-2-yl]-quinolin-6-yl}-3-cyclohexyl-3H-imidazo[4,5-b]pyridine-6-carboxylic acid]
inhibition at 33 µM: 104%
inhibition at 100 µM: 102%

COc1ccc(-c2cc(Cl)cc(Cl)c2)c(-c2ccc3cc(-c4nc5cc(C(=O)O)ccc5n4C4CCCCC4)ccc3n2)c1 [Compound 562, 1-Cyclohexyl-2-[2-(3′,5′-dichloro-4-methoxy-biphen-2-yl)-quinolin-6-yl]-1H-benzoimidazole-5-carboxylic acid]
inhibition at 33 µM: 102%
inhibition at 100 µM: 101%

O=C(N[C@@H](Cc1ccc(C(=O)c2ccccc2)cc1)C(=O)O)c1ccc2c(c1)nc(-c1ccc3nc(-c4ccccc4)cnc3c1)n2C1CCCCC1 [Compound 241, 3-(4-Benzoyl-phenyl)-2-{[1-cyclohexyl-2-(2-phenyl-quinoxalin-6-yl)-1H-benzoimidazole-5-carbonyl]-amino}-propionic acid]
inhibition at 33 µM: 98%
inhibition at 100 µM: 98.4%

O=C(O)c1ccc2c(c1)nc(-c1ccc3nc(-c4cc(O)cc(O)c4)ccc3c1)n2C1CCCCC1 [Compound 381, 1-cyclohexyl-2-[2-(3,5-dihydroxy-phenyl)-quinolin-6-yl]-1H-benzoimidazole-5-carboxylic acid]
inhibition at 33 µM: 94.3%
inhibition at 100 µM: 98%
